Experimental data taken from patent US8647687B2, “Isoamyl acetate for weight management” (Nestec S.A., priority 2008, dated 2014).

Assay: Clinical trial: Wanting, Liking and Intensity ratings of flavored waters after a preload
Format: in vivo, human
Conditions: prior consumption of the preload, then rating of isoamyl acetate flavored water; 17 participants
Description: Isoamyl acetate was combined with 0.5% w/w sucrose (Fisher Scientific) and dissolved in bottled mineral water (Vittel, Nestlé waters, France). Isoamyl acetate was provided as liquid concentrate supplied by Sigma-Aldrich (Steinheim, Germany). The final concentration of isoamyl acetate was 16 ppm.
A clinical trial with 17 healthy participants was conducted to investigate the neural correlates of flavor reward in terms of “Liking” (or pleasure) and “Wanting” (or appetite). Seventeen participants rated flavored waters in different conditions while their brain electrical activity was monitored using electro-encephalography. Waters were flavored either with isoamyl acetate (described as banana) or ethyl butyrate (described as strawberry). Experimental conditions consisted in the ratings of the 2 flavored waters after a preload (prior consumption of a flavored water) or without a preload.
The behavioral results of this clinical trial are summarized in FIG. 1 showing the mean Wanting (or appetite) and Liking (or pleasure) ratings (from 1, not at all to 9, extremely) obtained for the ETB flavored water in the different Preload conditions from 17 participants. […] IAA: isoamyl acetate; ETB: ethyl butyrate.

SMILES: CCCC(=O)OCC [ethyl butyrate]
- appetite for isoamyl acetate flavored water: no impact
